Experimental findings from PubChem BioAssay (NCI) are described below.

Holding throughout (assay): NCI-60 cell line screen, 48 h
Test [1] deals with CAKI-1 renal.
Test [2] relates to SF-295 CNS.
The test system of test [3] is MDA-MB-435.
Test [4] concerns NCI-H460 lung.
Test [5] concerns NCI-H522 lung.
Test [6] has as its system KM12 colon.
Test [7] relates to UO-31 renal.
Test [8] concerns NCI/ADR-RES ovarian.
Test [9] concerns HL-60(TB) leukemia.
Test [10] concerns OVCAR-8 ovarian.

SMILES strings stand for the structures.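 Test compounds were applied to cells in 96-well plates for 48 hours at 5 doses. TGI: concentration producing complete growth inhibition.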

As to `CCOC(=O)C1=CN(C(=O)c2ccccc2)CCC1Cc1ccccc1` (stereo not given), the TGI in test [1] is over 100 µM; in test [2], over 100 µM; in test [3], 51 µM; in test [4], 44.9 µM; in test [5], 40.5 µM; in test [6], over 100 µM. Further, the TGI was determined as 77.9 µM in test [7], 93 µM in [8], 32.2 µM in [9] and 88.4 µM in test [10].

For `Cc1nc2sccn2c1C(=O)OCCOCCOCCOCCOC(=O)c1c(C)nc2sccn12`, the TGI in [1], in test [2], in [3], in [4], in test [5] and in [6] was over 100 µM in each case. In addition, the TGI in test [7] is over 100 µM; in test [8] it was over 100 µM; in test [9], 34 µM; in test [10] it was over 100 µM.

For the compound `OC1(c2ccc(Cl)cc2)c2ccccc2C2=NCc3ccccc3CN21` (stereo not given), the TGI in test [1] was found to be 37.7 µM; in test [2] it was 28.8 µM; in test [3], 22.7 µM; in test [4], 23.7 µM; in [5], 27.7 µM; in test [6] it was 11.6 µM. Also, the TGI in test [7] was determined as 22.3 µM; in test [8], 26.2 µM; in [9], 17.4 µM; in test [10], 24.8 µM.

As to `O=C1OC(C(O)C(O)C(O)CO)C(O)C1O` (stereo not given), the TGI in [1], in [2], in [3], in test [4], in test [5] and in test [6] was over 100 µM throughout. The TGI in [7], in test [8], in test [9] and in test [10] was over 100 µM each time.

With `CC12CCC(C1)C(C)(C)C2OC(=O)c1ccccc1C(=O)O` (stereo not given), the TGI in [1], in test [2], in test [3], in test [4], in test [5] and in [6] was over 100 µM throughout. Moreover, the TGI in [7], in [8], in [9] and in test [10] was over 100 µM each time.

With `CSc1nc(=O)c(C#N)c(-c2ccccc2)n1C1OC(COC(C)=O)C(OC(C)=O)C(OC(C)=O)C1OC(C)=O` (stereo not given), the TGI in [1], in test [2], in test [3], in [4], in [5] and in test [6] was over 100 µM each time. The TGI in test [7], in test [8], in test [9] and in [10] was over 100 µM in each case.

`C=CCc1cccc2cc(C(=O)Nc3nc(C45CC6CC(CC(C6)C4)C5)cs3)c(=O)oc12`: the TGI in test [1] was 41.4 µM; in [2], 31.3 µM; in test [3], over 100 µM; in test [4], over 100 µM; in test [5] it was over 100 µM; in test [6], over 100 µM. For the same compound, the TGI is 25.2 µM in [7], over 100 µM in test [8], over 100 µM in test [9] and over 100 µM in test [10].

As for `C/C(=N\n1c(Cc2ccccc2)n[nH]c1=O)c1ccc([N+](=O)[O-])cc1`, the TGI in test [1], in [2], in [3], in test [4], in [5] and in [6] was over 100 µM each time. For the same compound, the TGI in test [7], in test [8], in test [9] and in test [10] was over 100 µM in each case.

For `CN1CCN(c2c(O)c3c(c(O)c2Cl)C(=O)C=CC3=O)CC1`, the TGI in test [1] amounted to 1.56 µM; in [2], 3.22 µM; in [3], 0.538 µM; in test [4], 3.77 µM; in test [5] it was 0.765 µM; in test [6] it was 3.93 µM. The TGI was found to be 1.22 µM in test [7], 2.65 µM in [8], 0.332 µM in [9] and 0.656 µM in test [10].

In the case of `CC(C)C[C@H](NC(=O)[C@H](CCc1ccccc1)NC(=O)c1ccc2ccccc2n1)B(O)O`, the TGI in test [1] is 4.73 µM; in [2], 0.305 µM; in test [3], under 0.0123 µM; in [4] it was 2.47 µM; in test [5], under 0.0405 µM; in test [6], 0.295 µM. Further, the TGI is 0.588 µM in [7], 4.66 µM in [8], 0.0955 µM in [9] and 0.86 µM in test [10].

On to `COc1cc(C2c3cc4c(cc3OC(N3CCOCC3)C2C)OCO4)cc(OC)c1OC(C)=O` (stereo not given), for which the TGI was over 100 µM in test [1]; 49 µM in test [2]; 14.4 µM in test [3]; over 100 µM in test [4]; 33.2 µM in test [5]; over 100 µM in test [6]. Moreover, the TGI in test [7] is over 100 µM; in test [8], 30.8 µM; in test [9], over 59 µM; in test [10], over 100 µM.

With `CCOC(=O)/C=C(/C(=O)OCC)n1ccc(=O)[nH]c1=O`, the TGI in [1] worked out at 2.3 µM; in test [2] it was 34.7 µM; in [3], 24.4 µM; in test [4] it was 30.5 µM; in test [5] it was 2.72 µM; in [6] it was 34.8 µM. Also, the TGI in [7] stood at 27.8 µM; in [8], 40.4 µM; in test [9], 4.08 µM; in [10], 27.4 µM.

As to `CCOC(=O)c1ccc(NC(NC(=O)CC)(C(F)(F)F)C(F)(F)F)cc1`, the TGI in test [1], in test [2], in test [3], in [4], in test [5] and in [6] was over 100 µM in each case. Besides, the TGI in [7], in test [8], in test [9] and in [10] was over 100 µM throughout.

Consider `O=C(CC(=O)Nc1ccccc1Cl)NNC(Sc1ccccc1)c1cc(N=Nc2ccc(Br)cc2)ccc1O` (stereo not given), for which the TGI in [1] was 7.19 µM; in test [2], 8.39 µM; in test [3] it was over 10 µM; in test [4], 2.86 µM; in [5], over 10 µM; in test [6], 5.04 µM. The TGI in [7] was determined as 3.96 µM; in [8] it was 5.61 µM; in [9], 1.1 µM; in [10], 2.39 µM.

Turning to `O=[N+]([O-])c1ccc(-[n+]2ccc3ccccc3c2)c([N+](=O)[O-])c1`, the TGI in [1] was 8.74 µM; in test [2], 28.5 µM; in test [3] it was 7.07 µM; in test [4], 30.1 µM; in test [5], 3.74 µM; in test [6] it was 27.7 µM. For the same compound, the TGI in test [7] is 9.28 µM; in test [8] it was 11.9 µM; in [9], 3.71 µM; in [10] it was 6.74 µM.

On to `O=C(CCC(=O)OCC1OC(O)(CC2OC(CO)C(O)C(O)C2O)C(O)C1O)OCc1ccccc1` (stereo not given), for which the TGI in test [1], in [2], in test [3], in test [4], in test [5] and in test [6] was over 100 µM in each case. Besides, the TGI in test [7], in test [8], in [9] and in [10] was over 100 µM each time.

As to `c1csc(-c2nnc(C34CC5CC(CC(C5)C3)C4)o2)c1`, the TGI in test [1], in [2], in test [3], in [4], in test [5] and in [6] was over 100 µM each time. Besides, the TGI in test [7] worked out at 15.6 µM; in [8], 57 µM; in [9], 33.5 µM; in test [10], 98.4 µM.

Turning to `O=C1CC(Cl)c2c(Cl)sc(Cl)c21` (stereo not given), the TGI in test [1] amounted to 3.18 µM; in [2] it was 31.7 µM; in test [3] it was 6.34 µM; in test [4] it was 40 µM; in test [5] it was 4.51 µM; in test [6], 4.03 µM. The TGI in test [7] was 3.67 µM; in [8] it was over 28.5 µM; in test [9], 3.23 µM; in test [10], 3.32 µM.

Consider `Cc1nc(N)nc(N)c1N1CCN(Cc2ccccc2)CC1`, for which the TGI in test [1] is over 100 µM; in test [2], over 100 µM; in [3], over 100 µM; in test [4], over 100 µM; in [5], over 93.5 µM; in test [6], over 100 µM. For the same compound, the TGI in test [7] was over 100 µM; in test [8], over 92.6 µM; in test [9] it was over 100 µM; in [10], over 100 µM.

Take `C=C1[C@H](OCC(C)C)[C@@H](OC(=O)C(C)CC)[C@@H](O)C(C)(C)/C=C/[C@H](C)C(=O)[C@@]2(O)C[C@H](C)[C@H](O)[C@@H]2[C@H]1OC(=O)C(C)CC` (stereo not given in full): the TGI in [1] was over 18.7 µM; in [2], over 16.9 µM; in test [3] it was over 20 µM; in test [4] it was 8.18 µM; in test [5], over 20 µM; in test [6], over 13.6 µM. Further, the TGI in test [7] is over 5.12 µM; in test [8], over 20 µM; in test [9], 19 µM; in test [10], over 20 µM.
